Patent US8937096B2, “Use of benzo-fused heterocyle sulfamide derivatives for the treatment of mania and bipolar disorder” (priority 2005, dated 2015)

Assays:
[1] = test system: stressed and non-stressed animals; experiment: Resident/Intruder Assay (Chronic Social Stress Assay); format: in vivo; set-up: Locomotor Mean ± SD / Rearing Mean ± SD / Sniffing Down Mean ± SD / Sniffing Up Mean ± SD: unit not given here
From the text: The behavioral resident/intruder assay is used to screen compounds for anti-depressant-like activity.

Sprague Dawley rats = experiment: Forced Swim Test (Acute); format: in vivo, rat
Protocol: The Forced Swim test (FST) is a commonly used procedure to screen compounds for possible antidepressant properties. This test is also known as the behavioral despair test. Rodents placed in […] tanks filled with water present a wide variety of escape or immobility behaviors. Antidepressant drugs from different classes markedly increase escape behaviors and/or decrease latency or duration of immobility.
Venlafaxine and desipramine were dissolved in water. All drugs and their vehicles were administered orally (p.o.) by gavage in a volume of 5 mL/kg.
Male Sprague Dawley rats (140 to 160 g) from Charles River Laboratories Wilmington, Mass. were used. The animals went through a five-day quarantine period before being subjected to the experimental procedure.
Animals were housed in groups of four in plastic cages at an ambient temperature of 21° C. to 23° C. with an automated 12 hour light/dark cycle and access to water and commercial rodent food ad libitum. Animals were not handled more than for the routine bedding change prior to pre-test swim session.
Each experiment consisted of seven treatment groups with n=4 animals per group. A total of 28 animals per experiment were used. Two consecutive experiments (1 and 2, 3 and 4, and 5 and 6) were exact replicas of each other. […] One treatment group of n=4 animals in each experiment was a vehicle treated group. […] In experiments 5 and 6 the effects of venlafaxine and maprotyline at 12 mg/kg, 30 mg/kg, and 60 mg/kg were tested.
The basic apparatus consisted of a cylinder (46 cm tall×˜20 cm diameter) filled with water to 30 cm deep, at a temperature of 25±1° C. The automated version of the FST was used to perform the experiments. Plumbing for automatic filling and emptying water connected the four cylinders. Cylinders were placed in the dividing chambers 25 cm wide to separate animals visually. Each 5-minute experimental session was videotaped and analyzed in real time by computer software (Clever Systems, Inc.) for four animals at a time. The immobility, swimming, climbing and escape times were recorded by the software. The four activities are defined as follow. Immobility: the animal floats motionlessly or makes only those movements necessary to keep its head above water; Climb: the animal vigorously moves vertically while scratching the wall around the cylinder; Swim: the animal moves horizontally around in the cylinder more than necessary to keep its head above water; and Escape: sum of all vigorous active movements.
The ability of a test compound to decrease the duration or frequency of immobility, or changes in swimming, climbing and escape times, was measured using the FST procedure described above. […] The analysis of the results in the studies described was focused on the immobility time during 5-minute test session.
There were two swim sessions in each experiment. First, a pre-test swim session for 15 minutes was performed. Following 48 hours later was a test session of 5-minute duration. Upon completion of a swim session, each animal was placed under a heat lamp in a cage with soft bedding for approximately 15 minutes to prevent hypothermia.
Animals were pre-treated with a vehicle or test compound after completing the pre-test swim session, then 24 hours later and then shortly prior to the 5-minute test session; i.e., three injections were given to each animal between the two swim sessions that occurred on 3 consecutive days.
Data were analyzed using GraphPad Prism software (GraphPad Software, Inc. San Diego, Calif.). For the comparison of the effect of different doses for various drugs on immobility in the FST one-way ANOVA was used followed by Dunnett's multiple comparison test. […] The ED50 and Emax values were statistically compared using two-tail t-test.

[2] = non-stressed, 10 mg/kg p.o., week 1
[3] = non-stressed, 10 mg/kg p.o., week 5
[4] = stressed, 10 mg/kg p.o., week 1
[5] = stressed, 10 mg/kg p.o., week 5
[6] = non-stressed, 60 mg/kg p.o., week 1
[7] = non-stressed, 60 mg/kg p.o., week 5
[8] = non-stressed, 120 mg/kg p.o., week 1
[9] = non-stressed, 120 mg/kg p.o., week 5
[10] = stressed, 60 mg/kg p.o., week 1
[11] = stressed, 60 mg/kg p.o., week 5
[12] = stressed, 120 mg/kg p.o., week 1
[13] = stressed, 120 mg/kg p.o., week 5

Structure (SMILES): COc1ccc(C(CN(C)C)C2(O)CCCCC2)cc1 (centres unmarked) [Venlafaxine, venlafaxine, reference compound]
- Forced Swim Test: Immobility during 5 min: Week 5 Mean ± SD ([1]; non-stressed, 10 mg/kg p.o.): 181.8 ± 27.6
- Sucrose Intake Mean ± SD Week 3 ([1]; non-stressed, 10 mg/kg p.o.): 88.4 ± 9.1
- Sucrose Intake Mean ± SD Week 4 ([1]; non-stressed, 10 mg/kg p.o.): 91.5 ± 5.6
- Sucrose Intake Mean ± SD Week 5 ([1]; non-stressed, 10 mg/kg p.o.): 87.9 ± 15.0
- Locomotor Mean ± SD [1, 2]: 9094.9 ± 1832.7
- Rearing Mean ± SD [1, 2]: 48.3 ± 11.2
- Sniffing Down Mean ± SD [1, 2]: 27.1 ± 5.2
- Sniffing Up Mean ± SD [1, 2]: 43.3 ± 8.9
- Locomotor Mean ± SD [1, 3]: 8078.6 ± 1665.2
- Rearing Mean ± SD [1, 3]: 40.1 ± 8.9
- Sniffing Down Mean ± SD [1, 3]: 27 ± 4.7
- Sniffing Up Mean ± SD [1, 3]: 38.6 ± 7.7
- Forced Swim Test: Immobility during 5 min: Week 5 Mean ± SD ([1]; stressed, 10 mg/kg p.o.): 190.4 ± 36.8
- Sucrose Intake Mean ± SD Week 3 ([1]; stressed, 10 mg/kg p.o.): 74.5 ± 16.7
- Sucrose Intake Mean ± SD Week 4 ([1]; stressed, 10 mg/kg p.o.): 76.1 ± 18.2
- Sucrose Intake Mean ± SD Week 5 ([1]; stressed, 10 mg/kg p.o.): 73.3 ± 17.6
- Locomotor Mean ± SD [1, 4]: 6233.6 ± 1087.2
- Rearing Mean ± SD [1, 4]: 30.8 ± 6.6
- Sniffing Down Mean ± SD [1, 4]: 14.9 ± 3.5
- Sniffing Up Mean ± SD [1, 4]: 28.6 ± 6.5
- Locomotor Mean ± SD [1, 5]: 6250.1 ± 789.2
- Rearing Mean ± SD [1, 5]: 35.1 ± 7.4
- Sniffing Down Mean ± SD [1, 5]: 18.3 ± 3.6
- Sniffing Up Mean ± SD [1, 5]: 33.1 ± 7.5
- doses at which effect on immobility was statistically significant vs vehicle (Sprague Dawley rats; p.o.): 30 mg/kg and 60 mg/kg

Structure (SMILES): NS(=O)(=O)NC[C@H]1COc2cc(Cl)ccc2O1 [Compound #8, (2S)-(−)-N-(6-Chloro-2,3-dihydro-benzo[1,4]dioxin-2-ylmethyl)-sulfamide]
- activity in the resident/intruder assay ([1]; 60 and 120 mg/kg p.o.): active in the resident/intruder assay
- Forced Swim Test: Immobility during 5 min: Week 5 Mean ± SD ([1]; non-stressed, 60 mg/kg p.o.): 164.3 ± 25.3
- Sucrose Intake Mean ± SD Week 3 ([1]; non-stressed, 60 mg/kg p.o.): 90.9 ± 3.5
- Sucrose Intake Mean ± SD Week 4 ([1]; non-stressed, 60 mg/kg p.o.): 92.3 ± 1.4
- Sucrose Intake Mean ± SD Week 5 ([1]; non-stressed, 60 mg/kg p.o.): 88.9 ± 7.4
- Locomotor Mean ± SD [1, 6]: 8288.6 ± 2117.5
- Rearing Mean ± SD [1, 6]: 49.6 ± 8.7
- Sniffing Down Mean ± SD [1, 6]: 20.9 ± 3.3
- Sniffing Up Mean ± SD [1, 6]: 44.1 ± 9.4
- Locomotor Mean ± SD [1, 7]: 7922.9 ± 1476
- Rearing Mean ± SD [1, 7]: 37.4 ± 11.5
- Sniffing Down Mean ± SD [1, 7]: 23.5 ± 6.4
- Sniffing Up Mean ± SD [1, 7]: 33.4 ± 11.2
- Forced Swim Test: Immobility during 5 min: Week 5 Mean ± SD ([1]; non-stressed, 120 mg/kg p.o.): 136.7 ± 34.9
- Sucrose Intake Mean ± SD Week 3 ([1]; non-stressed, 120 mg/kg p.o.): 83.6 ± 22.1
- Sucrose Intake Mean ± SD Week 4 ([1]; non-stressed, 120 mg/kg p.o.): 91.3 ± 4.6
- Sucrose Intake Mean ± SD Week 5 ([1]; non-stressed, 120 mg/kg p.o.): 89.3 ± 5.1
- Locomotor Mean ± SD [1, 8]: 8056.6 ± 867.2
- Rearing Mean ± SD [1, 8]: 42 ± 10.6
- Sniffing Down Mean ± SD [1, 8]: 22.8 ± 3.7
- Sniffing Up Mean ± SD [1, 8]: 37.6 ± 8.4
- Locomotor Mean ± SD [1, 9]: 8648.3 ± 1060.9
- Rearing Mean ± SD [1, 9]: 36.5 ± 6.3
- Sniffing Down Mean ± SD [1, 9]: 25.5 ± 4.1
- Sniffing Up Mean ± SD [1, 9]: 33.5 ± 5.9
- Forced Swim Test: Immobility during 5 min: Week 5 Mean ± SD ([1]; stressed, 60 mg/kg p.o.): 175.1 ± 29.5
- Sucrose Intake Mean ± SD Week 3 ([1]; stressed, 60 mg/kg p.o.): 92.1 ± 3.2
- Sucrose Intake Mean ± SD Week 4 ([1]; stressed, 60 mg/kg p.o.): 89.5 ± 6.9
- Sucrose Intake Mean ± SD Week 5 ([1]; stressed, 60 mg/kg p.o.): 92.4 ± 4.5
- Locomotor Mean ± SD [1, 10]: 5858.5 ± 708.2
- Rearing Mean ± SD [1, 10]: 26.5 ± 6.1
- Sniffing Down Mean ± SD [1, 10]: 13 ± 3.3
- Sniffing Up Mean ± SD [1, 10]: 25 ± 7.3
- Locomotor Mean ± SD [1, 11]: 7080.9 ± 1238.7
- Rearing Mean ± SD [1, 11]: 32.8 ± 10.3
- Sniffing Down Mean ± SD [1, 11]: 24.8 ± 5.7
- Sniffing Up Mean ± SD [1, 11]: 30.6 ± 11.1
- Forced Swim Test: Immobility during 5 min: Week 5 Mean ± SD ([1]; stressed, 120 mg/kg p.o.): 128.3 ± 37.4
- Sucrose Intake Mean ± SD Week 3 ([1]; stressed, 120 mg/kg p.o.): 76.1 ± 20.8
- Sucrose Intake Mean ± SD Week 4 ([1]; stressed, 120 mg/kg p.o.): 75.5 ± 20.6
- Sucrose Intake Mean ± SD Week 5 ([1]; stressed, 120 mg/kg p.o.): 87.4 ± 7.9
- Locomotor Mean ± SD [1, 12]: 6168.3 ± 1132.1
- Rearing Mean ± SD [1, 12]: 29.3 ± 7
- Sniffing Down Mean ± SD [1, 12]: 13 ± 3.6
- Sniffing Up Mean ± SD [1, 12]: 27.5 ± 6.1
- Locomotor Mean ± SD [1, 13]: 6444 ± 1010.3
- Rearing Mean ± SD [1, 13]: 30.1 ± 6.4
- Sniffing Down Mean ± SD [1, 13]: 22.5 ± 4.1
- Sniffing Up Mean ± SD [1, 13]: 30.4 ± 7.5
- effect on immobility vs control (Sprague Dawley rats; 30 mg/kg p.o., large variability between individual rats): not significantly different from control
- Emax (immobility) in the FST (Sprague Dawley rats; p.o.): 67.0 ± 11.6 s
- doses at which effect on immobility was statistically significant vs vehicle (Sprague Dawley rats; p.o.): 12 mg/kg, 60 mg/kg, and 120 mg/kg
